Experimental data published in patent publication US8153787B2 (priority 2005, dated 2012).
Converted amounts (≈) assume the structure as drawn. Like-named read-outs stand apart in the source and are kept apart here.

Experiments:
[1] = test system: Varicella-Zoster Virus (VZV); assay: microbe, parasite or virus in culture; type: cell-based; conditions: Human alphaherpesvirus 3, HEL
[2] = test system: Human Cytomegalovirus (HCMV); assay: microbe, parasite or virus in culture; type: cell-based
Vaccinia virus = assay: organism not typed; type: cell-based; conditions: HEL
Cowpox virus (Brighton) = assay: microbe, parasite or virus in culture; type: cell-based; conditions: Cowpox virus, HEL, read-out: EC50 Cowpox virus Brighton
Orf virus (NZ2) = assay: microbe, parasite or virus in culture; type: cell-based; conditions: Orf virus, HEL, read-out: EC50 Orf virus NZ2
[3] = test system: primate polyomavirus (SV40); assay: microbe, parasite or virus in culture; type: cell-based, simian polyomavirus SV40; conditions: for EC50: Polyomavirus sp., BSC-1, in Primates
murine polyomavirus = assay: microbe, parasite or virus in culture; type: cell-based; conditions: for EC50: Alphapolyomavirus muris, UC1, UC1B
HEL cells = conditions: HEL cells, microscopy
HSB-2 cells = conditions: human
MOLT-3 cells = conditions: human
in vitro [4] = conditions: human
in vitro [5] = conditions: African green monkey
in vitro [6] = conditions: mouse
in vitro [7] = conditions: human; remark: listed apart in the source
[8] = test system: herpes simplex virus type 1 (HSV-1); assay: microbe, parasite or virus in culture; type: cell-based; conditions: Human alphaherpesvirus 1, HEL, read-out: EC50 HSV-1 (Kos strain)
[9] = test system: herpes simplex virus type 2 (HSV-2); assay: microbe, parasite or virus in culture; type: cell-based; conditions: Human alphaherpesvirus 2, HEL, read-out: EC50 HSV-2 (G strain)
[10] = read-out: EC50 VZV 07/1 strain (HEL cells)
[11] = read-out: EC50 VZV OKA strain (HEL cells)
[12] = Human betaherpesvirus 5, AD169, HEL, read-out: EC50 HCMV AD-169 strain (HEL cells)
[13] = Human betaherpesvirus 5, HEL, read-out: EC50 HCMV Davis strain (HEL cells)
[14] = read-out: EC50 Vaccinia Virus Lister
[15] = Orthopoxvirus vaccinia, read-out: EC50 Vaccinia Virus Copenhagen
[16] = Orthopoxvirus vaccinia, read-out: EC50 Vaccinia Virus Lederle
[17] = Orthopoxvirus vaccinia, read-out: EC50 Vaccinia Virus WR
[18] = read-out: antiviral activity (EC50) SV40 PML-1 strain EK
[19] = read-out: antiviral activity (EC50) SV40 PML-2 strain DAR
[20] = read-out: antiviral activity (EC50) SV40 strain A2895
[21] = read-out: antiviral activity (EC50) 2PTA2
[22] = read-out: antiviral activity (EC50) MN/RDE Toronto
[23] = read-out: antiviral activity (EC50) LID-1
[24] = read-out: antiviral activity (EC50) PTA

Row | Structure (SMILES) | EC50 [1, 10] [ng/mL] | EC50 [1, 11] [ng/mL] | EC50 [2, 12] [ng/mL] | EC50 [2, 13] [ng/mL] | EC50 (Vaccinia virus; [14]) [ng/mL] | EC50 (Vaccinia virus; [15]) [ng/mL] | EC50 (Vaccinia virus; [16]) [ng/mL] | EC50 (Vaccinia virus; [17]) [ng/mL] | selectivity index SV40 PML-1 strain EK [3] | selectivity index SV40 PML-2 strain DAR [3] | selectivity index SV40 strain A2895 [3] | EC50 [3, 18] [ng/mL] | EC50 [3, 19] [ng/mL] | EC50 [3, 20] [ng/mL] | selectivity index 2PTA2 (murine polyomavirus) | selectivity index MN/RDE Toronto (murine polyomavirus) | EC50 (murine polyomavirus; [21]) [ng/mL] | EC50 (murine polyomavirus; [22]) [ng/mL] | CC50 (in vitro [5]) [ng/mL] | CC50 (in vitro [6]) [ng/mL] | further results
1 | NC(=NC(=O)NC[C@@H](CO)OCP(=O)(O)O)NC=O.[Na] [Compound 3a, Sodium 3-formyl-2-{[(2S)-3-hydroxy-2-(phosphono-methoxy)propyl]carbamoyl}guanidine] | 46 | 42 | 100 | 120 | 7610 | 5840 | 7970 | 6340 | >20 | >24 | >34 | 10000 | 8240 | 5920 | >13 | >26 | 14800 | 7570 | > 200000 | > 200000 | EC50 (Cowpox virus (Brighton)): 12600 ng/mL; EC50 (Orf virus (NZ2)): 370 ng/mL; Toxicity MCC (microscop) (HEL cells): >100 µg/mL; Toxicity MCC (microscopy), HSB-2 cells (HSB-2 cells): >200 µg/mL; Toxicity MCC (microscopy), MOLT-3 cells (MOLT-3 cells): 200 µg/mL; CC50 at 3 days (in vitro [4]): > 50000 ng/mL; CC50 (in vitro [7]): > 100000 ng/mL
2 | CCCCCCCCCCCCCCCCOCCOP1(=O)CO[C@@H](Cn2cnc(N)nc2=O)CO1 (stereo partly drawn) [Compound 12, hexadecyloxyethyl ester of 1-{[(5S)-2-Hydroxy-2-oxido-1,4,2-dioxaphosphinan-5-yl]methyl}-5-azacytosine] | < 0.02 | < 0.02 | < 0.02 | < 0.02 | < 32 | < 32 | < 32 | 72 (≈ 136 nM) | 57.6 | 38.7 | 44.5 | 150 (≈ 283 nM) | 180 (≈ 339 nM) | 160 (≈ 302 nM) | 33.8 | 34.9 | 300 (≈ 565 nM) | 290 (≈ 547 nM) | 7100 (≈ 13400 nM) | 10000 (≈ 18800 nM) | EC50 ([1]; read-out: EC50 VZV YS strain (HEL cells)): < 0.02 ng/mL; EC50 ([1]; read-out: EC50 VZV YS-R strain (HEL cells)): < 0.02 ng/mL; EC50 (Cowpox virus (Brighton)): < 32 ng/mL; EC50 (Orf virus (NZ2)): < 32 ng/mL; EC50 [8]: 72 ng/mL (≈ 136 nM); EC50 [9]: 360 ng/mL (≈ 678 nM); selectivity index LID-1 (murine polyomavirus): 21.3; selectivity index PTA (murine polyomavirus): 35.6; EC50 (murine polyomavirus; [23]): 470 ng/mL (≈ 886 nM); EC50 (murine polyomavirus; [24]): 280 ng/mL (≈ 528 nM); CC50 (in vitro [4]; […]): 6000 ng/mL (≈ 11300 nM)
3 | NC(N)=NC(=O)NC[C@@H](CO)OCP(=O)(O)O [Compound 10, 2-{[(2S)-3-Hydroxy-2-(Phosphonomethoxy)propyl]carbamoyl}guanidine] |  |  |  |  |  |  |  |  | 1 | 1 | 1 | > 200000 | > 200000 | > 200000 | 1 | 1 | > 200000 | > 200000 | > 200000 | > 200000 | selectivity index LID-1 (murine polyomavirus): 1; selectivity index PTA (murine polyomavirus): 1; EC50 (murine polyomavirus; [23]): > 200000 ng/mL; EC50 (murine polyomavirus; [24]): > 200000 ng/mL; Toxicity MCC (microscopy), HSB-2 cells (HSB-2 cells): >200 µg/mL
